Assay results as given in ChEMBL document CHEMBL1121697, “Carbocyclic analogues of 5-fluorouracil nucleosides” (1981).

Legend:
Format in all cases: functional
[1] = tested on: Mus musculus; assay: Median life span of the treated P388 leukemia mice to that of control mice after intraperitoneal administration of 50 mg/kg of compound in a q.d. 1-9 schedule; 10.5/10.9
[2] = tested on: Mus musculus; assay: Median life span of the treated P388 leukemia mice to that of control mice after intraperitoneal administration of 100 mg/kg of compound in a q.d. 1-9 schedule; 11.4/11.3
[3] = tested on: Mus musculus; assay: Median life span of the treated P388 leukemia mice to that of control mice after intraperitoneal administration of 200 mg/kg of compound in a q.d. 1-5 schedule 12.0/11.9
[4] = tested on: Mus musculus; assay: Average weight change in treated P388 leukemia mice to that of control mice on administration of 100 mg/kg of compound in a q. d. 1-9 schedule
[5] = tested on: Mus musculus; assay: Life span ratio of P388 leukemia mice treated to that of control mice at dose 200 mg/kg, ip; settings: route intraperitoneal
[6] = tested on: Mus musculus; assay: Life span ratio of L1210 leukemia mice treated to that of control mice at dose 100 mg/kg, ip; settings: route intraperitoneal
[7] = tested on: Mus musculus; assay: Number of deaths recorded in mice with P388 leukemia on days 1-5 after intraperitoneal administration of 400 mg/kg of compound in a q.d. 1-5 schedule; 0/6
[8] = tested on: Mus musculus; assay: Number of deaths recorded in mice with P388 leukemia on days 1-5 after intraperitoneal administration of 100 mg/kg of compound in a q.d. 1-9 schedule; 0/6
[9] = tested on: Mus musculus; assay: Median life span of the treated P388 leukemia mice to that of control mice after intraperitoneal administration of 600 mg/kg of compound in a q.d. 1-5 schedule; 13.1/12.0
[10] = tested on: Mus musculus; assay: Life span ratio of P388 leukemia mice treated to that of control mice at dose 50 mg/kg, ip; settings: route intraperitoneal
[11] = tested on: Mus musculus; assay: Average weight change in treated P388 leukemia mice to that of control mice on administration of 600 mg/kg of compound in a q. d. 1-5 schedule
[12] = tested on: Mus musculus; assay: Life span ratio of P388 leukemia mice treated to that of control mice at dose 400 mg/kg, ip; settings: route intraperitoneal
[13] = tested on: Mus musculus; assay: Average weight change in treated P388 leukemia mice to that of control mice on administration of 50 mg/kg of compound in a q. d. 1-9 schedule
[14] = tested on: Mus musculus; assay: Number of deaths recorded in mice with L-1210 leukemia on days 1-5 after intraperitoneal administration of 100 mg/kg of compound in a q.d. 1-9 schedule; 0/6
[15] = tested on: Mus musculus; assay: Median life span of the treated L1210 leukemia mice to that of control mice after intraperitoneal administration of 100 mg/kg of compound in a q.d. 1-9 schedule; 8.3/8.2
[16] = tested on: Mus musculus; assay: Average weight change in treated L1210 leukemia mice to that of control mice on administration of 100 mg/kg of compound in a q. d. 1-9 schedule
[17] = tested on: Mus musculus; assay: Life span ratio of P388 leukemia mice treated to that of control mice at dose 100 mg/kg, ip; settings: route intraperitoneal
[18] = tested on: Mus musculus; assay: Life span ratio of P388 leukemia mice treated to that of control mice at dose 600 mg/kg, ip; settings: route intraperitoneal
[19] = tested on: Mus musculus; assay: Number of deaths recorded in mice with P388 leukemia on days 1-5 after intraperitoneal administration of 200 mg/kg of compound in a q.d. 1-5 schedule; 0/6
[20] = tested on: Mus musculus; assay: Number of deaths recorded in mice with P388 leukemia on days 1-5 after intraperitoneal administration of 600 mg/kg of compound in a q.d. 1-5 schedule; 0/6
[21] = tested on: Mus musculus; assay: Median life span of the treated P388 leukemia mice to that of control mice after intraperitoneal administration of 400 mg/kg of compound in a q.d. 1-5 schedule; 14.3/11.9
[22] = tested on: Mus musculus; assay: Average weight change in treated P388 leukemia mice to that of control mice on administration of 200 mg/kg of compound in a q. d. 1-5 schedule
[23] = tested on: Mus musculus; assay: Average weight change in treated P388 leukemia mice to that of control mice on administration of 400 mg/kg of compound in a q. d. 1-5 schedule
[24] = tested on: Mus musculus; assay: Number of deaths recorded in mice with P388 leukemia on days 1-5 after intraperitoneal administration of 50 mg/kg of compound in a q.d. 1-9 schedule; 0/5
[25] = tested on: Mus musculus; assay: Number of deaths recorded in mice with P388 leukemia on days 1-5 after intraperitoneal administration of 50 mg/kg of compound in a q.d. 1-9 schedule; 0/6
[26] = tested on: Mus musculus; assay: Average weight change in treated mice to that of control mice on the same day of administration of 50 mg/kg of compound in a q. d. 1-9 schedule
[27] = tested on: Mus musculus; assay: Life span ratio of mice treated to that of control mice at dose 50 mg/kg, ip; settings: route intraperitoneal
[28] = species on record: Mus musculus; assay: Median life span of the treated mice to that of control mice; 11.1/10.9

## O=c1[nH]c(=O)n([C@H]2C[C@H](O)[C@@H](CO)O2)cc1F [FLOXURIDINE]
[1]
  Median life span: 10.5 days
[2]
  Median life span: 11.4 days
[3]
  Median life span: 12 days
[4]
  Weight change: 0.6 g
[5]
  T/C: 100%
[6]
  T/C: 101%
[7]
  No. of deaths: 0
[8]
  No. of deaths: 0
[9]
  Median life span: 13.1 days
[10]
  T/C: 96%
[11]
  Weight change: -0.7 g
[12]
  T/C: 120%
[13]
  Weight change: 1 g
[14]
  No. of deaths: 0
[15]
  Median life span: 8.3 days
[16]
  Weight change: -0.5 g
[17]
  T/C: 100%
[18]
  T/C: 109%
[19]
  No. of deaths: 0
[20]
  No. of deaths: 0
[21]
  Median life span: 14.3 days
[22]
  Weight change: 0.8 g
[23]
  Weight change: -0.3 g
[24]
  No. of deaths: 0

## O=c1[nH]c(=O)n(C2CC(CO)C(O)C2O)cc1F (stereo not drawn)
[25]
  No. of deaths: 0
[26]
  Weight change: 0.9 g
[27]
  T/C: 101%
[28]
  Median life span: 11.1 days
